Measured values taken from patent US12187663B2, “Thyromimetics with a biphenylmethane scaffold and their use” (INTERNATIONAL SOCIETY FOR DRUG DEVELOPMENT S.R.L., priority 2019, dated 2025).

What was measured:
TR-beta = target: T1, TR-beta (Homo sapiens, UniProt P10828); test: LanthaScreen TR-FRET nuclear receptor coregulator assay, TR-beta; format: biochemical; settings: coregulator peptide recruitment
T1 construct: In this assay Nuclear Receptor-LBD is added to ligand test compounds; purchased Invitrogen Corporation, Life Technologies
T1 sequence (P10828 217-461 limits assumed): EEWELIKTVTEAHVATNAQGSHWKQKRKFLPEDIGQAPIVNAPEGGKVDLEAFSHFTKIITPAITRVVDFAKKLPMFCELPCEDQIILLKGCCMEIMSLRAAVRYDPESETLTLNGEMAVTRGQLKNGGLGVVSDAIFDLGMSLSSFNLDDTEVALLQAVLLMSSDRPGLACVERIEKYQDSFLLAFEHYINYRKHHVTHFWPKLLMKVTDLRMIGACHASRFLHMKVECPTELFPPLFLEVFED
Protocol: (§1) The compounds of Formula (I,II) were tested in the biological test named LANTHASCREEN TR-FRET NUCLEAR RECEPTOR COREGULATOR ASSAY (Invitrogen Corporation, Life Technologies).
(§2) In this assay Nuclear Receptor-LBD is added to ligand test compounds followed by addition of a mixture of the fluorescein-coregulator peptide and terbium anti-GST antibody.

[1] = Liver/body weight ratio in rats; format: in vivo, F344 male rats; settings: 3 days daily; IS25 or TG68 50, 75, 100 μg/100 g b.w. i.g. or 75 μg/100 g i.p.; T3 20 μg/100 g b.w.
Protocol: (§3) Five-week-old male F-344 rats purchased from Charles River (Milano, Italy) were maintained on a standard laboratory diet (Ditta Mucedola, Milano, Italy). The animals were given food and water ad libitum with a 12-h light/dark daily cycle and were acclimated for 1 week before the start of the experiment. All procedures were performed in accordance with the Guidelines for the Care and Use of Laboratory Animals and were approved by the Italian Ministry of Health. […] A control group received the vehicle (DMSO 5% in corn oil). Additional two groups received daily injections of either IS25 or TG68 at the dose of 75 μg/100 g b.wt. intraperitoneally for 3 days. For the measurement of hepatocyte proliferation, animals received bromodeoxyuridine (BrdU; 1 g/1 L) in drinking water during the 3-day treatment period (FIGS. 7A and B).
A control group received the vehicle (DMSO 5% in corn oil). Additional two groups received daily injections of either IS25 or TG68 at the dose of 75 μg/100 g b.w. intraperitoneally for 3 days.

HepG2 cells [2] = test: Cell viability MTT assay; format: cell-based; settings: 1-10 μM, 24 h
Protocol: HepG2 cells were seeded in a 96-well plate (Corning, USA) at a density of 1.0×10^4 cells/well with DMEM (200 μl/well), and then incubated for 24 h according to routine procedure. After being treated with test compounds (1-10 μM) and incubated for 24 h (8 wells for each sample), 20 μL/well MTT (5 g/L) was added to each well. The medium was then removed after 4 h incubation and 100 μL/well sodium dodecyl sulfate (SDS)-HCl solution was added to dissolve the reduced formazan product after incubation for 16 h at 37° C. Finally, the plate was read at 570 nm, using a micro-plate reader (Bio-Rad 680, USA).

[3] = Serum levels of cholesterol, glucose, transaminases, amylase, lipase, bilirubin and triglycerides; format: in vivo, F-344 rats; settings: rats, intragastric administration, 3 days
AMPK = test: Western blot of phosphorylated AMPK in HepG2 cells; format: cell-based, Human; settings: twenty-four hours of treatment, dose dependent
Protocol: Human hepatocellular carcinoma cells (HepG2), obtained from American Type Culture Collection (Manassas, Va., USA), were cultured in low-glucose (LG) Dulbecco's modified Eagle's medium (DMEM) ([…], Invitrogen, Carlsbad, Calif., USA) or high-glucose (HG) DMEM ([…]) supplemented with 10% fetal bovine serum (FBS) and […] penicillin/streptomycin in an atmosphere of 5% CO2 at 37° C. These cells were then treated with tested compounds at various concentrations for 24 h. After treatments, cells were lysed in a buffer containing 20 mM Tris-HCl (pH 7.5), 0.9% NaCl, 0.2% Triton X-100, and 1% of the protease inhibitor cocktail (Sigma-Aldrich, Milan, Italy) and then stored at −80° C. for further western blot analysis. All the analyses were conducted on cells between the third and the sixth passage.
Proteins (20-30 μg) were separated on CriterionTGX™ gel (4-20%) and transferred on Immuno-PVDF membrane (Biorad, Milan, Italy) for 1 h. Blots were incubated with the primary antibody at 4° C. overnight. All the polyclonal antibodies for the protein of interest were purchased from Santa Cruz Biotechnology, Inc., Dallas, TX, USA. Then, blots were washed 3 times for 10 minutes with 1×TBS, 0.1% Tween® 20 and incubated for 1 h with secondary antibody (peroxidase-coupled anti rabbit in 1×TBS, 0.1% Tween®20). […] Band densitometric analysis was performed using Image Lab Software (Biorad, Milan, Italy).
The liver is a major organ responsible for most functions of cellular metabolism and a mediator between dietary and endogenous sources of energy for extrahepatic tissues. In this context, AMPK constitutes an intrahepatic energy sensor regulating physiological energy dynamics by limiting anabolism and stimulating catabolism, thus increasing ATP availability. Once activated, AMPK phosphorylates its downstream substrates to reduce ATP-consuming anabolic pathways, including cholesterol, fatty acid, and triacylglycerol synthesis, and increases ATP-generating catabolic pathways, including fatty acid oxidation and lipolysis. […]

HepG2 cells [4] = test: Glycerol release (lipolysis); format: cell-based, Human; settings: 24 hours treatment, 1 and 10 μM
Protocol: Samples of the media collected from HepG2 cells used to test lipid accumulation by Oil Red O staining (as detailed above), were assayed for glycerol levels using the Glycerol Assay Kit (Cell Based-ab133130-Abcam).

hepatocytes = test: Mitotic activity of hepatocytes (BrdU incorporation); format: in vivo, F344 rats; settings: 3 days; for hepatocyte proliferation (mitogenic effect): i.p. injection 75 μg/100 g b.w.; for hepatocyte proliferation (BrdU incorporation): intragastric (i.g.) 50, 75 and 100 μg/100 g b.w.
Text: FIG. 7. […] A. Labeling Index (L.I.) of hepatocytes from F344 rats subjected to the treatment with test compounds was expressed as number of BrdU-positive hepatocyte nuclei/100 nuclei. Results were expressed as means±S.E. of 3-5 rats per group. At least 3000 hepatocytes per liver were scored. *P<0.05; **P<0.01.
as §3

TR-alpha = target: T2, TR-alpha (Homo sapiens, UniProt P10827); test: LanthaScreen TR-FRET nuclear receptor coregulator assay, TR-alpha; format: biochemical; settings: for EC50: Nuclear Receptor TR-alpha, coregulator peptide recruitment; for interaction with TRalpha receptor: conclusion from TR-FRET data
T2 construct: In this assay Nuclear Receptor-LBD is added to ligand test compounds; purchased Invitrogen Corporation, Life Technologies
T2 sequence (P10827 163-410 isoform P10827-2 limits assumed, other chains not shown): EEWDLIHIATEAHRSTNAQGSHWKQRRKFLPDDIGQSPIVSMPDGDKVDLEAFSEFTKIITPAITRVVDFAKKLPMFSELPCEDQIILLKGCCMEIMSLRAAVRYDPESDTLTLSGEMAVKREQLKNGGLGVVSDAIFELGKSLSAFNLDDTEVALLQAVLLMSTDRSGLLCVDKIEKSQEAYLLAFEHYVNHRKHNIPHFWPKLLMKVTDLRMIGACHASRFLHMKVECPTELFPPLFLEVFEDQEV
Protocol: as §1, §2

Row | Structure (SMILES) | EC50 (TR-beta) [nM] | liver/body weight ratio [1] | cell viability (cell death with respect to control) (HepG2 cells [2]) | serum TGs level [3] | expression of p-AMPK (AMPK) | glycerol release / lipolysis (HepG2 cells [4]) | hepatocyte proliferation (mitogenic effect) (hepatocytes) | hepatocyte proliferation (BrdU incorporation) (hepatocytes) | EC50 (TR-alpha) [nM] | interaction with TRalpha receptor (TR-alpha)
1 | Cc1cc(OCC(=O)O)cc(C)c1Cc1ccc(N)c(C(C)C)c1 [IS25, 2-(4-(4-amino-3-isopropylbenzyl)-3,5-dimethylphenoxy)acetic acid] | 458 | no such effect was observed | did not significantly (p<0.05) cause cell death | significantly reduced | significantly (p<0.05) increased | induce lipolysis | the mitogenic effect was lost | induced a dose dependent hepatocyte proliferation | > 1000 | do not interact
2 | CC(=O)Nc1ccc(Cc2c(C)cc(OCC(=O)O)cc2C)cc1C(C)C [TG68, 2-(4-(4-acetamido-3-isopropylbenzyl)-3,5-dimethylphenoxy)acetic acid] | > 1000 | no such effect was observed | did not significantly (p<0.05) cause cell death | significantly reduced | significantly (p<0.05) increased | induce lipolysis | the mitogenic effect was lost | induced a dose dependent hepatocyte proliferation | > 1000 | do not interact
